Literature values as cited in paper PMC3372989, “Conformational Differences between Active Angiotensins and Their Inactive Precursors” (Acta Naturae, 2012).

Assays:
[1] = background statement, no reference printed directly at the statement
[2] = test system: receptors of Ang2; settings: ref [4]
Description: The oft-cited example of the structural differences between peptides found in their protein precursor and peptides in a free state is human angiotensinogen and its metabolites; i.e. , angiotensins 1, 2 and 3. Angiotensin 1 (Ang1) is a prohormone that consists of 10 amino acid residues and is produced from angiotensinogen as a result of the cleavage of the N-terminal peptide. […] Angiotensin 2 (Ang2) differs from angiotensin 1 by the absence of two C-terminal amino acid resi ...

[3] = doses needed for immunization (10–50 µg/mouse), even intramuscular and subcutaneous injections
Description: The human and mouse angiotensins 1, as well as angiotensins 2 and 3, have identical amino acid sequences. […] Altogether, it makes angiotensins extremely inconvenient immunogens; however, their conjugation with Hsp70, an adjuvant protein from M. tuberculosis, allowed to overcome the immunological tolerance and to eliminate the toxicity. As a result, we ob ...

Row | Substance | physiological activity [1] | binding to the receptors of Ang2 [2] | fatal outcome on introduction into the body [3]
1 | angiotensin 1 | exhibits no physiological activity | incapable of binding to the receptors of Ang2 | –
2 | angiotensin 2 | exhibit physiological activity | – | leads to a fatal outcome
